This is an account of results in PMC10721329, “Quisinostat is a brain-penetrant radiosensitizer in glioblastoma” (JCI Insight, 2023).

Several values for one entry are separate records, joined by “and”; a condition that tells them apart may be missing. Identical values can stand only once. Like-named read-outs stand apart in the source and are kept apart here.

A short description of data set [1]: Total and unbound QST in tumor and contralateral brain, short-term treatment, orthotopic GB126 PDX. Type of data set: in vivo. On the procedure: To establish the PK-PD correlation and efficacy in an orthotopic patient-derived xenograft (PDX) model of GBM, we implanted GB126 cells in the brains of athymic nude mice and began treatment once the tumors started growing exponentially. Tumor-bearing mice were treated with QST (10 mg/kg), with or without IR, on a MWF schedule (Figure 7A). As described above, IR was delivered locally to the brain in 2-Gy fractions 2 hours after being dosed with vehicle solution or QST, for a cumulative delivery of 6 Gy. To assess acute PD effects and drug levels after short-term QST treatment (1 week, 3 doses total), 10 mice from each experimental cohort were sacrificed 3 hours after receiving the third dose of vehicle solution or QST (Figure 7A). Plasma, tumors, and brain tissue contralateral to the tumors were collected and processed for PK and PD analyses. […] To assess PD modulation, we homogenized brain tumors to obtain whole-tissue protein lysates from each mouse and quantified changes in histone H3 acetylation levels using immunoblotting.
QST concentrations in specimens were measured using reverse-phase LC on the AB SCIEX QTRAP6500+ LC-MS/MS system by operating electrospray in the positive ion mode. For liquid chromatographic separation, gradient elution was performed using a Phenomenex Kinetex F5 100 Å column (100 × 2.1 mm, 2.6 μm). The initial composition of the mobile phase was 70% phase A (0.1% formic acid in water) and 30% phase B (0.1% formic acid in 1:1 acetonitrile/methanol) with a 0.35 mL/min flow rate. […] The total run time was 3.5 minutes. The internal standard used in this study was D8-infigratinib. […] LC-MS/MS analysis was performed using an Analyst 1.7 Chromatographic Data System. See Supplemental Methods for detailed PK experiments.
Gy on MWF for a total of 6 Gy in the first week of treatment. Treatment groups included vehicle (50% PEG-3000), QST (10 mg/kg) alone, 6 Gy whole-brain IR treatment with vehicle, and 6 Gy whole-brain IR treatment with 10 mg/kg QST. QST was administered to mice through intraperitoneal injections two hours prior to whole-brain radiation treatment. […]
For short-term PK-PD correlation studies, tumor-bearing mice were randomized into groups and underwent a single week of treatment with QST (10 mg/kg) on MWF. For mice receiving IR treatment with or without QST, mice were treated with 2 Gy on MWF for a total of 6 Gy. QST was administered to mice through intraperitoneal injections 2 hours before whole-brain radiation treatment. On the third and last day of treatment, mice were sacrificed and processed for PD and PK analyses 3 hours after administration of QST or vehicle. For PD analyses, the mice were euthanized with isoflurane, and the tumors were dissected out of the brain and flash-frozen for subsequent analysis through Western blotting and RNA sequencing.
Tissue from the hemisphere contralateral to the tumor was also collected as a normal brain/nontumor reference sample. For PK analyses, the mice were anesthetized with isoflurane, and at least 300 μL of blood was drawn from the right ventricle of the heart. The blood was collected in tubes containing 10 μL of 0.1 M KOH in EDTA to prevent blood coagulation. Blood samples were immediately centrifuged at 3000 rpm for 10 minutes at 4 °C to allow separation of plasma. After collection of the blood, the tumor was dissected out of the brain and flash -frozen.

The subject of the next data set is HDAC2. On the set-up: method as in PMID 32608981. The settings on record: cited from earlier work.
Where [2] appears, read: acute treated tumors, individual mice.

In the case of `Cn1cc(CNCC2CCN(c3ncc(C(=O)NO)cn3)CC2)c2ccccc21` [QST, quisinostat], in data set [1] (acute treated tumor-bearing mice, individual mice), the “UNBOUND [QST], Brain” value is 1.55 nM and 0.424 nM and 0.84 nM and 2.425 nM and 1.0975 nM. In addition, the concentration at 3 h in data set [1] (acute treated tumor-bearing mice, individual mice, read-out: TOTAL [QST], brain) was 31 nM and 8.48 nM and 48.5 nM and 21.95 nM; in data set [1] (athymic nude, mouse, brain tissue contralateral to the tumor, intraperitoneal, 10 mg/kg, acute treated tumor-bearing mice, mean, read-out: Total QST, brain, mean), 25.4 nM; in data set [1] (athymic nude, mouse, brain tissue contralateral to the tumor, intraperitoneal, 10 mg/kg, acute treated tumor-bearing mice, mean, read-out: Unbound QST, brain, mean) it was 1.27 nM; in data set [1] (athymic nude, mouse, brain tumor (orthotopic GB126 xenograft), intraperitoneal, 10 mg/kg, acute treated tumors, mean, read-out: Total QST, tumor, mean), 588 nM; in data set [1] (athymic nude, mouse, brain tumor (orthotopic GB126 xenograft), intraperitoneal, 10 mg/kg, acute treated tumors, mean, read-out: Unbound QST, tumor, mean) it was 29.4 nM; in data set [1] (athymic nude, mouse, in vivo, 10 mg/kg, acute treated tumor-bearing mice, individual mice, read-out: TOTAL [QST], brain), 16.8 nM. For the same molecule, the “TOTAL [QST], tumor” value in data set [1] (setting [2]) was 634.32 nM and 1029.61 nM and 23.89 nM and 646.61 nM and 605.65 nM. The “UNBOUND [QST], Tumor” value in data set [1] (setting [2]) is 31.716 nM and 51.4805 nM and 1.1945 nM and 32.3305 nM and 30.2825 nM. In the data set on HDAC2, the IC50 was […].
